From US20090281065A1, “Use of Lysophospholipids to Treat Inflammation” (priority 2008, published 2009)
Marks after values point to notes of the source that are not given here.

How the values were obtained:
TNBS induced colitis [1] = system: TNBS induced colitis
TNBS induced colitis [2] = experiment: TNBS induced colitis in rats: colon wet weight and macroscopic colon score; conditions: for Colon Score / Colon wet weight (g): day 11
IL6 = experiment: Plasma cytokine ELISA in TNBS colitis rats: IL6; conditions: Example 3; oral day 4-10: PB6 1.5 108 CFU/Kg thrice daily; Lysophospholipid 10.3 mg/Kg 2 times daily; combination 25.75 mg/ml 2 times daily; Mesacol 250 mg/Kg once daily
TNF-α = experiment: Plasma cytokine ELISA in TNBS colitis rats: TNF-α
IL1-β = experiment: Plasma cytokine ELISA in TNBS colitis rats: IL1-β
IL10 = experiment: Plasma cytokine ELISA in TNBS colitis rats: IL10
IFN-γ = experiment: Plasma cytokine ELISA in TNBS colitis rats: IFN-γ
TGF-β = experiment: Plasma cytokine ELISA in TNBS colitis rats: TGF-β
NFκB = experiment: Inflammation test without TNF-α (NFκB luciferase reporter); format: cell-based; conditions: FIG. 9
Protocol: An overnight culture of HepG2/NFκB-Luc cells were trypsinized and transferred to 96-well microtiter plate, with 1.5×10^4 cells/well. […] After incubation, the supernatant was removed, and 100 μl of luciferase substrate was added into each well and incubated for 5 minutes. Then 80 μl of the solution was transferred to a clean microtiter plate to determine the florescence unit by Steady-Glo® Luciferase Assay System. The LPC-treated cells without substrate added were used as control.

HepG2/NFκB-Luc cells = experiment: Cytotoxicity test (AlamarBlue reduction rate); format: cell-based; conditions: 2 mg/ml (~3636 μM) LPC content; 4 hours; FIG. 8
Protocol: An overnight culture of HepG2/NFκB-Luc cells were trypsinized and transferred to 96-well microtiter plate, with 1.5×10^4 cells/well. The 96-well microtiter plates were incubated for 24 hours at 37° C. with 5% CO2. Then different concentrations of LPC samples were added into plate wells together with AlamarBlue. The cells were incubated for 4 hours at 37° C. with 5% CO2 before the OD570 and OD600 readings were measured. Culture medium with no LPC added was used as a control. The cytotoxicity was reflected by the amount of AlamarBlue being reduced (reduction rate (RR)) as determined by the following formula:
RR %={[(εoxλ2)(Aλ1)−(εoxλ1)(Aλ2)]}/{[(εredλ1)(A′λ2)−(εredλ2)(A′λ1)]}×100%
where, εredλ1=155677 (absorption coefficient of reduced AlamarBlue at 570 nm) • Εredλ2=14652 (absorption coefficient of reduced AlamarBlue at 600 nm) • εoxλ1=80586 (absorption coefficient of oxidized AlamarBlue at 570 nm) • εoxλ2=117216 (absorption coefficient of oxidized AlamarBlue at 600 nm) • A′λ1=OD570 of the blank control (wells with AlamarBlue but no cells) • A′λ2=OD600 of the blank control (wells with AlamarBlue but no cells).

[3] = set-up: species or system Cobb 400 broiler chickens; conditions: in vivo
[4] = set-up: species or system Cobb 400 broiler chickens; conditions: in vivo; remark: listed apart in the source
[5] = Example 3, oral day 4-10: PB6 1.5 108 CFU/Kg thrice daily, Lysophospholipid 10.3 mg/Kg 2 times daily, combination 25.75 mg/ml 2 times daily, Mesacol 250 mg/Kg once daily
[6] = Example 4, Lysoprin + Marinol + lutein at 21.5 mg/kg orally thrice daily day 4-10, Mesacol 250 mg/Kg orally once daily

Compound: Nc1ccc(O)c(C(=O)O)c1 [Mesacol, 5-aminosalicylic acid]
- % Body weight gain/loss Day 1-4 (TNBS induced colitis [1]; Example 3, TNBS day 1, Day 1-4 is prior to treatment (treatment from day 4)): −6.6%
- % Body weight gain/loss Day 4-10 (TNBS induced colitis [1]; Example 3, oral day 4-10: PB6 1.5 10^8 CFU/Kg thrice daily, Lysophospholipids 10.3 mg/Kg 2 times daily, combination 25.75 mg/ml 2 times daily, Mesacol 250 mg/Kg once daily): −1.87%
- mortalities due to severe weight loss (TNBS induced colitis [1]; Example 4, Mesacol 250 mg/kg group, n=6): two
- macroscopic examination of the colonic tissue (TNBS induced colitis [2]; Example 3, PB6 (Group 4), Lysophospholipid 10.3 mg/kg (Group 5), combination 21.63 mg/kg (Group 6), Mesacol (Group 7)): no lesions with any visible inflammation or injury in the colonic tissue
- Colon Score (TNBS induced colitis [2]; Example 3, macroscopic grade 0-5, oral day 4-10: PB6 1.5 108 CFU/Kg thrice daily, Lysophospholipids 10.3 mg/Kg 2 times daily, combination 25.75 mg/ml 2 times daily, Mesacol 250 mg/Kg once daily): 0.833^a
- Colon wet weight (g) (TNBS induced colitis [2]; Example 3, oral day 4-10: PB6 1.5 108 CFU/Kg thrice daily, Lysophospholipids 10.3 mg/Kg 2 times daily, combination 25.75 mg/ml 2 times daily, Mesacol 250 mg/Kg once daily): 0.669^a g
- Colon wet weight (g) (TNBS induced colitis [2]; Example 4, Lysoprin + Marinol + lutein at 21.5 mg/kg orally thrice daily day 4-10, Mesacol 250 mg/Kg orally once daily day 4-10): 0.336^ab g
- Colon Score (TNBS induced colitis [2]; Example 4, grade 0-5, Lysoprin + Marinol + lutein at 21.5 mg/kg orally thrice daily day 4-10, Mesacol 250 mg/Kg orally once daily day 4-10): 1.000^a
- macroscopic examination of the colonic tissue (TNBS induced colitis [2]; Example 4, low dose combination at 21.63 mg/kg (Group 4), Mesacol (Group 6, n=4/6)): signs of amelioration with reduced localized ulceration
- IL6 level in Plasma Day 11 (IL6): 127.4^a picogram/ml
- TNF-α level in Plasma Day 7 (TNF-α; [5]): 22.77^a picogram/ml
- TNF-α level in Plasma Day 11 (TNF-α; [5]): 30.27^b picogram/ml
- TNF-α level in Plasma Day 7 (TNF-α; [6]): 29±^ab picogram/ml
- TNF-α level in Plasma Day 11 (TNF-α; [6]): 28±^a picogram/ml
- IL1-β level in Plasma Day 7 (IL1-β; [5]): 881.52^b picogram/ml
- IL1-β level in Plasma Day 11 (IL1-β; [5]): 848.33^bc picogram/ml
- IL1-β level in Plasma Day 7 (IL1-β; [6]): 567±^a picogram/ml
- IL1-β level in Plasma Day 11 (IL1-β; [6]): 685±^bc picogram/ml
- IL10 level in Plasma Day 7 (IL10; [5]): 217.9ab picogram/ml
- IL10 level in Plasma Day 11 (IL10; [5]): 444c picogram/ml
- IL10 level in Plasma Day 7 (IL10; [6]): 231^ab picogram/ml
- IL10 level in Plasma Day 11 (IL10; [6]): 454^d picogram/ml
- IFN-γ level in Plasma Day 7 (IFN-γ; [5]): 20.8^a picogram/ml
- IFN-γ level in Plasma Day 11 (IFN-γ; [5]): 40.23^c picogram/ml
- IFN-γ level in Plasma Day 7 (IFN-γ; [6]): 37^b picogram/ml
- IFN-γ level in Plasma Day 11 (IFN-γ; [6]): 40^c picogram/ml
- TGF-β level in Plasma Day 7 (TGF-β; [5]): 17535 ± 2261a picogram/ml
- TGF-β level in Plasma Day 11 (TGF-β; [5]): 32542 ± 5294b picogram/ml
- TGF level in Plasma Day 7 (TGF-β; [6]): 37^b picogram/ml
- TGF level in Plasma Day 11 (TGF-β; [6]): 40^c picogram/ml

Compound: lysophosphatidylcholine [pure LPC]
- inflammation activity (luciferase activity), without TNF-α, highest concentration (NFκB; 50 μM of LPC, compared to the mock treatment): no statistical difference
- inflammation activity (luciferase activity), without TNF-α (NFκB; 5, 15 and 50 μM LPC content, 6 hours): inflammatory effect at all the three concentrations tested
- cytotoxicity (AlamarBlue reduction rate) (HepG2/NFκB-Luc cells): Certain inhibition

Compound: CC1=C[C@H](O)CC(C)(C)[C@H]1/C=C/C(C)=C/C=C/C(C)=C/C=C/C=C(C)/C=C/C=C(C)/C=C/C1=C(C)C[C@@H](O)CC1(C)C [Treatment 2, lutein]
- performance (feed intake, weight gain, FCR) [3]: comparable to that of the control group

Compound: CCC(=O)[O-].CCC(=O)[O-].CCC(=O)[O-].[Cr+3] [Treatment 3, chromium propionate]
- FCR [3]: A similar trend
- weight gain [3]: A similar trend
- relative weight of the thymus [4]: higher
